The results in this text go back to patent publication US20140221390A1, “PROPHYLACTIC AND/OR THERAPEUTIC AGENT FOR NON-ALCOHOLIC STEATOHEPATITIS” (Kowa Company, Ltd., priority 2010, published 2014).

Assay type in all cases: in vivo
The test system of test [1] is LDL receptor-knockout mice. Put plainly: Effect in LDL receptor-knockout mouse NASH model (Western diet). Particulars: 12 weeks. The text has this:
An effect in LDL receptor-knockout mice fed with the Western diet which were known to develop fatty liver and hepatic inflammation, i.e., characteristic conditions of NASH (Yoshimatsu M. et al. Int J Exp Pathol., 85(6), 335-43 (2004)) was examined. In the present test, monohydrochloride of 2-[4-[2-(benzimidazol-2-ylthio)ethyl]piperazin-1-yl]-N-[2,4-bis(methylthio)-6-methyl-3-pyridyl]acetamide (hereinafter referred to as “compound A”) was used.
Male LDL receptor-knockout mice (B6.129S7-Ldlr<tm1Her>/J, Jackson Laboratories) were used for the experiment. The mice aged around 8 weeks were allowed to freely intake Teklad Custom Research Diet (TD.88137, manufactured by Harlan Teklad) as a Western diet for 12 weeks to cause them to develop NASH.
The mice were separated into a control group (hydrochloride added purified water) and a compound A (3 mg/kg, as free form) administered group so that there is no difference in the weights between the groups.
The dose was calculated by 10 mL/kg weight. Hydrochloride added purified water and each drug solution were orally administered to the control group and the compound A administered group, respectively, at an interval of at least 6 hours, once in the morning and once in the afternoon. The mice aged around 8 weeks were fed with the Western diet, and the drug solution was administered at the same time. The dosing period was 12 weeks.
After the end of administration, the mice were fasted overnight. The blood was collected from the abdominal portion of vena cava under anesthesia with pentobarbital sodium (50 mg/kg) and the plasma was fractionated. After collecting the blood, the liver was extracted and frozen for preservation. A part of the liver was frozen in ISOGEN (NIPPON GENE, CO., LTD.) and preserved to analyze the gene expression.
Total cholesterol (TC) and triglyceride (TG) in the plasma were measured using Cholesterol E Test Wako and Triglyceride E Test Wako (both manufactured by Wako Pure Chemical Industries, Ltd.), respectively. Measurement of liver lipid was performed in the following manner. Chloroform and methanol (at a ratio of 2:1) were added to the frozen and preserved liver, which was homogenized, and the resultant mixture was allowed to stand at 4° C. longer than overnight, followed by filtration. A part of the filtrate was fractionated, followed by evaporation and drying. The resultant product was dissolved in isopropanol. TC and TG concentrations were measured using Cholesterol E-Test Wako and Triglyceride E-Test Wako, respectively.
Liver gene expression analysis was performed by extracting RNA from the liver and measuring expression levels of TNF-α genes and CD11c genes in adhesion molecules belonging to an integrin family of macrophages by realtime RT-PCR. The liver was homogenized in ISOGEN to extract RNA according to the instruction manual. The concentration of RNA was measured using a spectrophotometer (ND-1000, NanoDrop Technologies, Inc.). Reverse transcription of mRNA from total RNA was performed using High Capacity cDNA Reverse Transcription Kit (Applied Biosystems) to synthesize cDNA. Gene expression analysis was performed by an intercalator method using SYBR green I or a method using Taqman Probe. Realtime RT-PCR was performed using 7900HT Fast Real-Time PCR System (Applied Biosystems). β-actin was used as an internal standard. After correction with β-actin, the expression levels of respective genes were compared with one another. The sequences of the used primers and probes are as follows: […]
The statistical work was performed using the Windows (registered trademark) version of the SAS Preclinical Package (SAS Institute Japan Inc.).

Test [2] relates to C57BL/6N-NASH mice. The test can be described thus: Effect in murine NASH-hepatoma models (C57BL/6N-NASH mice). The note with it: 100 mg/kg mixed in feed, 5 weeks. The source says:
Murine NASH-hepatoma models (brand name: C57BL/6 N-NASH mice) developed in Stelic Institute & Co. (See Japanese Patent Application Laid-Open (JP-A) No. 2009-178143) are provided by Charles River Laboratories Japan, Inc. The murine models develop NASH by initiation of insulin resistance and feeding with a high fat diet. The murine models show changes which histologically reflect the conditions of human NASH. The fatty liver (before 6 weeks old) progresses to NASH (7 weeks old), liver cirrhosis (after 10 weeks old), and liver cancer (after 16 weeks old). Accordingly, it is said that the models are useful in research and development of therapeutic drugs for NASH (See Data of SIAM Mice C57BL/6N-NASH Model Mice (http://www.crj.co.jp/topics/pdf/69/6375030/B6N_NASH_leaflet—091019.pdf)).
Then, the effect of the compound A was examined using murine NASH-hepatoma models with a more serious condition than the knockout mice used in Example 1.
Male C57BL/6N-NASH mice (Charles River Laboratories Japan, Inc.) were used for the experiment. Streptozotocin was administered to the mice aged 1 to 2 days and they were fed with a high fat diet (D12492, Research Diet) from 4 weeks old. The mice were purchased at 6 weeks old and continuously fed with the same high fat diet (hereinafter, the mice are referred to as “C57BL/6N-NASH mice”). As a normal control group, normal mice (C57BL/6N, 6 weeks old, Charles River Laboratories Japan, Inc.) were purchased at the same time and they were fed with an ordinary diet (CE-2, CLEA Japan, Inc.) (hereinafter referred to as “normal mice”).
C57BL/6N-NASH mice were used for a control group and a compound A (100 mg/kg) administered group. The number of mice in each group was six. As normal mice (control group), 6 normal mice (C57BL/6N mice) were used.
The compound A and feeds were mixed to feed the mice. C57BL/6N-NASH mice with NASH aged 7 weeks were fed with the feed mixture. The dosing period was 5 weeks.
After the end of administration, the mice were fasted for 4 hours. The blood was collected from the abdominal portion of vena cava under anesthesia, and the plasma was fractionated. After collecting the blood, the liver was extracted. A part of the liver was frozen for preservation, and the other part was embedded in paraffin in a usual manner. Plasma lipid and plasma ALT levels were measured using an autoanalyzer (Labospect003, Hitachi, Ltd.). Measurement of liver lipid was performed in the following manner. That is, chloroform and methanol (at a ratio of 2:1) were added to a part of the frozen and preserved liver, which was homogenized, and the resultant mixture was allowed to stand at 4° C. overnight, followed by filtration. A part of the filtrate was fractionated, followed by evaporation and drying. The resultant product was dissolved in isopropanol. The concentrations of total cholesterol (TC) and triglyceride (TG) were measured using Cholesterol E-Test Wako and Triglyceride E-Test Wako, respectively. Further, paraffin sections and HE-stained specimens were produced to observe liver tissues.

Test [3] relates to KK-A^y mice. Put plainly: Effect in KK-Ay mice fed with MCD diet (NASH model). The note with it: 7 weeks. The text has this:
Rodent models fed with methionine-choline deficient diet (MCD diet) are widely used as NASH models (See Hebbard L, George J.: Animal models of nonalcoholic fatty liver disease Nat Rev Gastroenterol Hepatol. 2011 January; 8 (1):35-44. Epub 2010 Nov. 30.). Among them, models of KK-A^y mice are known to cause marked steatohepatitis and fibrosis (See Okumura K., Ikejima K., Kon K., Abe W., Yamashina S., Enomoto N., Takei Y. and Sato N. (2006) Exacerbation of dietary steatohepatitis and fibrosis in obese, diabetic KK-A^y mice Hepatology Research 2006 36:3 (217-228)). It is considered that the mice are excellent models to examine the drug effect on NASH.
Male KK-A^y mice (KK-A^y/TaJcl mice, 12 weeks old, were purchased from CLEA Japan, Inc.) were used for the experiment. The mice were fed with the MCD diet for 7 weeks to cause NASH.
The mice were separated into a control group, a compound A (30 mg/kg) administered group, and a compound A (200 mg/kg) administered group. The drug and feeds were mixed to feed the mice. The dosing period was 7 weeks.
The compound A and feeds were mixed to feed the mice. The mice was fed with the MCD diet, and fed with the feed mixture at the same time.
The methods were performed, in the same manner as in the case of the murine NASH-hepatoma models described in Example 2. In addition to the HE-stained specimens for observing liver tissues, Azan-stained specimens were also prepared.

Structures can show the parent of a compound that is named as a salt.

`CSc1cc(C)nc(SC)c1NC(=O)CN1CCN(CCSc2nc3ccccc3[nH]2)CC1` [compound A, monohydrochloride of 2-[4-[2-(benzimidazol-2-ylthio)ethyl]piperazin-1-yl]-N-[2,4-bis(methylthio)-6-methyl-3-pyridyl]acetamide]: in test [1] (3 mg/kg as free form, oral, twice daily, Western diet, FIG. 1A), the “total cholesterol (TC) in the plasma” value was “no significant effect”. Besides, the “triglyceride (TG) in the plasma” value in test [1] (3 mg/kg as free form, oral, twice daily, Western diet, FIG. 1B) was “no significant effect”. Further, the “total cholesterol (TC) in the liver” value in test [1] (3 mg/kg as free form, oral, twice daily, Western diet, FIG. 2A) is given as “significant decrease”. For the same compound, the “triglyceride (TG) in the liver” value in test [1] (3 mg/kg as free form, oral, twice daily, Western diet, FIG. 2B) is “significant decrease”. Also, the “macrophage CD11c gene expression in the liver” value in test [1] (3 mg/kg, realtime RT-PCR, corrected with β-actin, FIG. 3A) is listed as “significant decreases”. In test [1] (3 mg/kg, realtime RT-PCR, corrected with β-actin, FIG. 3B), the “inflammatory cytokine TNF-α expression in the liver” value is “significant decreases”. Also, the plasma lipid result in test [2] (from 7 weeks old) and in test [3] (30 or 200 mg/kg mixed in feed) was “no effect” throughout. Also, the “plasma ALT level” value in test [2] (vs NASH control group, FIG. 4) is reported as “reduced”; in test [3] (200 mg/kg mixed in feed, FIG. 8), “significantly reduced”. Besides, the “hepatic TC level” value in test [2] (vs NASH control group, FIG. 5) is given as “reduced”; in test [3] (mixed in feed, FIG. 9), “significantly reduced”. In addition, the “hepatic TG level” value in test [2] (vs NASH control group, FIG. 6) is “reduced”; in test [3] (mixed in feed, FIG. 10), “significantly reduced”. The “development of lipid-droplet deposition in liver (HE-stained)” value in test [2] (FIG. 7) is “inhibited”. The “development of lipid-droplet deposition in the liver (HE-stained)” value in test [3] (mixed in feed, FIG. 11) is “inhibited”. In addition, in test [3] (mixed in feed, FIG. 12), the “development of fibrosis in the liver (Azan-stained)” value is “inhibited”.
